# Measured values from patent publication US11000033B2, “Ketone or oxime compound, and herbicide” (NISSAN CHEMICAL CORPORATION, priority 2014, dated 2021).
# Key:
# Assay type in all cases: in vivo
# rapeseed = experiment: Test Example 5: effect on crop by foliage application, plastic box (symbol g); conditions: 320 g/ha, 3 weeks after application
# In short: (§1)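 Crop and weed seeds sown in spots in sterilized diluvial soil in plastic boxes and covered with about 1.5 cm soil. Plants raised in a greenhouse at 25° C. to 30° C. for foliar application.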
# Amaranthus retroflexus = experiment: Test Example 5: herbicidal effect by foliage application, plastic box (symbol N); conditions: 320 g/ha, 3 weeks after application
# In short: (§2)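 Herbicide, formulated as an emulsion and diluted in water, is sprayed onto the aerial parts of 14-day seedlings. These were grown at 25° C. to 30° C. in sterilized diluvial soil; effects are graded after 3 weeks.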
# Scirpus juncoides = experiment: Test Example 2: herbicidal activity, application during weed generation in submerged conditions (symbol B); conditions: Table 23; application herbicide amount 320 g/ha; grade 0-5 by criteria of Test Example 1
# In short: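 Seeds sown in flooded alluvial soil (4 cm water) were grown in a 25-30° C greenhouse. At the one- to two-leaf stage, diluted emulsion of compound was applied to the water surface at a predetermined rate. Effect was scored 3 weeks later.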
# Galium spurium = experiment: Test Example 4: herbicidal effect by soil treatment (symbol Q); conditions: for Q: Galium spurium, herbicidal effect grade: 320 g/ha
# In short: (§3)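 Seeds were sown in sterilized diluvial soil, covered with about 1.5 cm of soil, and the soil surface was sprayed with a water-diluted emulsion of the compound at a predetermined rate. Plants grew in a greenhouse at 25° C. to 30° C.; effects were scored visually 3 weeks after application.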
# soybean = experiment: Test Example 4: effect on crop by soil treatment (symbol d); conditions: for d: soybean, effect grade on crop: 320 g/ha
# In short: (§4)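 Plants grew in a 25° C. to 30° C. greenhouse after spot-sowing of seeds, including beet, rapeseed, wheat and rice, into sterilized diluvial soil under roughly 1.5 cm of cover soil.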
# Apera spica-venti [1] = experiment: Test Example 4: herbicidal effect by soil treatment (symbol L); conditions: for L: Apera spica-venti, herbicidal effect grade: 320 g/ha
# In short: as §3
# Lolium multiflorum Lam. = experiment: Test Example 5: herbicidal effect by foliage application, plastic box (symbol K); conditions: 320 g/ha, 3 weeks after application
# In short: as §2
# [2] = test system: Echinochloa crus-galli var. crus-galli; experiment: Test Example 5: herbicidal effect by foliage application, plastic box (symbol H); conditions: 320 g/ha, 3 weeks after application
# In short: as §2
# Veronica persica = experiment: Test Example 4: herbicidal effect by soil treatment (symbol R); conditions: for R: Veronica persica, herbicidal effect grade: 320 g/ha
# In short: as §3
# Apera spica-venti [3] = experiment: Test Example 5: herbicidal effect by foliage application, plastic box (symbol L); conditions: 320 g/ha, 3 weeks after application
# In short: as §2
# Avena fatua = experiment: Test Example 5: herbicidal effect by foliage application, plastic box (symbol I); conditions: 320 g/ha, 3 weeks after application
# In short: as §2
# corn = experiment: Test Example 4: effect on crop by soil treatment (symbol c); conditions: for c: corn, effect grade on crop: 320 g/ha
# In short: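 Plants are raised in a greenhouse (25° C. to 30° C.) from spot-sown seed, which sits under about 1.5 cm of sterilized diluvial soil in a box shared with weed species.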
# wheat = experiment: Test Example 4: effect on crop by soil treatment (symbol e); conditions: for e: wheat, effect grade on crop: 320 g/ha
# In short: as §4
# [4] = test system: Echinochloa crus-galli var. crus-galli; experiment: Test Example 3: herbicidal effect by foliage application, Wagner pot (symbol H); conditions: application herbicide amount 320 g/ha
# In short: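 Plants sown in submerged alluvial soil (water depth 0.1–0.5 cm) in a 25–30 °C greenhouse and grown 14 days. An emulsion of the compound diluted in water to a set herbicide amount was sprayed uniformly on foliage. Effect on each plant scored 3 weeks after application.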
# beet = experiment: Test Example 5: effect on crop by foliage application, plastic box (symbol f); conditions: 320 g/ha, 3 weeks after application
# In short: as §1
# Stellaria media = experiment: Test Example 4: herbicidal effect by soil treatment (symbol P); conditions: for P: Stellaria media, herbicidal effect grade: 320 g/ha
# In short: as §3
# [5] = application herbicide amount 320 g/ha
Compound,"Herbicidal effect grade, B: Scirpus juncoides (Scirpus juncoides)","herbicidal effect on H (Echinochloa crus-galli var. crus-galli), grade 0-5 [4]","g: rapeseed, effect on crop (criteria 0-5) (rapeseed)","N: Amaranthus retroflexus, herbicidal effect (criteria 0-5) (Amaranthus retroflexus)","Q: Galium spurium, herbicidal effect grade (Galium spurium)","d: soybean, effect grade on crop (soybean)","L: Apera spica-venti, herbicidal effect grade (Apera spica-venti [1])","K: Lolium multiflorum Lam., herbicidal effect (criteria 0-5) (Lolium multiflorum Lam.)","H: Echinochloa crus-galli var. crus-galli, herbicidal effect (criteria 0-5) [2]","R: Veronica persica, herbicidal effect grade (Veronica persica)","L: Apera spica-venti, herbicidal effect (criteria 0-5) (Apera spica-venti [3])","I: Avena fatua, herbicidal effect (criteria 0-5) (Avena fatua)","c: corn, effect grade on crop (corn)","e: wheat, effect grade on crop (wheat)","f: beet, effect on crop (criteria 0-5) (beet)","P: Stellaria media, herbicidal effect grade (Stellaria media)",further results
CON=C(C)CC1CC(OC(=O)c2ccccc2)=C(c2c(C)cc(C)cc2C)C1=O (centres unmarked) [1-010],5 (Herbicidal ratio of 90% or more (almost completely withered)),5 (Herbicidal ratio of 90% or more (almost completely withered)),–,–,–,–,–,–,–,–,–,–,–,–,–,–,"g: rapeseed, effect on crop grade (rapeseed): 4 (Herbicidal ratio of 70% or higher and lower than 90%); N: Amaranthus retroflexus, herbicidal effect grade (Amaranthus retroflexus): 4 (Herbicidal ratio of 70% or higher and lower than 90%); Q (Galium spurium) herbicidal effect grade (Galium spurium; [5]): 2 (Herbicidal ratio of 20% or higher and lower than 40%); d (soybean) effect on crop grade (soybean; [5]): 4 (Herbicidal ratio of 70% or higher and lower than 90%); L (Apera spica-venti) herbicidal effect grade (Apera spica-venti [1]; [5]): 5 (Herbicidal ratio of 90% or more (almost completely withered)); K: Lolium multiflorum Lam., herbicidal effect grade (Lolium multiflorum Lam.): 5 (Herbicidal ratio of 90% or more (almost completely withered)); H: Echinochloa crus-galli var. crus-galli, herbicidal effect grade [2]: 5 (Herbicidal ratio of 90% or more (almost completely withered)); R (Veronica persica) herbicidal effect grade (Veronica persica; [5]): 4 (Herbicidal ratio of 70% or higher and lower than 90%); L: Apera spica-venti, herbicidal effect grade (Apera spica-venti [3]): 5 (Herbicidal ratio of 90% or more (almost completely withered)); I: Avena fatua, herbicidal effect grade (Avena fatua): 5 (Herbicidal ratio of 90% or more (almost completely withered)); c (corn) effect on crop grade (corn; [5]): 4 (Herbicidal ratio of 70% or higher and lower than 90%); e (wheat) effect on crop grade (wheat; [5]): 4 (Herbicidal ratio of 70% or higher and lower than 90%); f: beet, effect on crop grade (beet): 4 (Herbicidal ratio of 70% or higher and lower than 90%); P (Stellaria media) herbicidal effect grade (Stellaria media; [5]): 4 (Herbicidal ratio of 70% or higher and lower than 90%)"
CON=C(C)CC1CC(OS(=O)(=O)C2CC2)=C(c2c(C)cc(C)cc2C)C1=O (centres unmarked) [1-143],4 (Herbicidal ratio of 70% or higher and lower than 90%),4 (Herbicidal ratio of 70% or higher and lower than 90%),4 (Herbicidal ratio of 70% or higher and lower than 90%),1 (Herbicidal ratio of 5% or higher and lower than 20%),0 (Herbicidal ratio of 5% or lower (almost no effect)),0 (Herbicidal ratio of 5% or lower (almost no effect)),5 (Herbicidal ratio of 90% or more (almost completely withered)),5 (Herbicidal ratio of 90% or more (almost completely withered)),5 (Herbicidal ratio of 90% or more (almost completely withered)),0 (Herbicidal ratio of 5% or lower (almost no effect)),5 (Herbicidal ratio of 90% or more (almost completely withered)),5 (Herbicidal ratio of 90% or more (almost completely withered)),0 (Herbicidal ratio of 5% or lower (almost no effect)),2 (Herbicidal ratio of 20% or higher and lower than 40%),0 (Herbicidal ratio of 5% or lower (almost no effect)),0 (Herbicidal ratio of 5% or lower (almost no effect)),–
CON=C(C)CC1CC(OC(=O)OCc2ccccc2)=C(c2c(C)cc(C)cc2C)C1=O (centres unmarked) [1-145],5 (Herbicidal ratio of 90% or more (almost completely withered)),5 (Herbicidal ratio of 90% or more (almost completely withered)),4 (Herbicidal ratio of 70% or higher and lower than 90%),0 (Herbicidal ratio of 5% or lower (almost no effect)),0 (Herbicidal ratio of 5% or lower (almost no effect)),0 (Herbicidal ratio of 5% or lower (almost no effect)),5 (Herbicidal ratio of 90% or more (almost completely withered)),5 (Herbicidal ratio of 90% or more (almost completely withered)),5 (Herbicidal ratio of 90% or more (almost completely withered)),3 (Herbicidal ratio of 40% or higher and lower than 70%),5 (Herbicidal ratio of 90% or more (almost completely withered)),5 (Herbicidal ratio of 90% or more (almost completely withered)),5 (Herbicidal ratio of 90% or more (almost completely withered)),5 (Herbicidal ratio of 90% or more (almost completely withered)),2 (Herbicidal ratio of 20% or higher and lower than 40%),3 (Herbicidal ratio of 40% or higher and lower than 70%),–
C=CCOC(=O)OC1=C(c2c(C)cc(C)cc2C)C(=O)C(CC(C)=NOC)C1 (centres unmarked) [1-146],5 (Herbicidal ratio of 90% or more (almost completely withered)),5 (Herbicidal ratio of 90% or more (almost completely withered)),5 (Herbicidal ratio of 90% or more (almost completely withered)),0 (Herbicidal ratio of 5% or lower (almost no effect)),0 (Herbicidal ratio of 5% or lower (almost no effect)),0 (Herbicidal ratio of 5% or lower (almost no effect)),5 (Herbicidal ratio of 90% or more (almost completely withered)),5 (Herbicidal ratio of 90% or more (almost completely withered)),5 (Herbicidal ratio of 90% or more (almost completely withered)),5 (Herbicidal ratio of 90% or more (almost completely withered)),5 (Herbicidal ratio of 90% or more (almost completely withered)),5 (Herbicidal ratio of 90% or more (almost completely withered)),1 (Herbicidal ratio of 5% or higher and lower than 20%),5 (Herbicidal ratio of 90% or more (almost completely withered)),4 (Herbicidal ratio of 70% or higher and lower than 90%),1 (Herbicidal ratio of 5% or higher and lower than 20%),–
COCCOC(=O)OC1=C(c2c(C)cc(C)cc2C)C(=O)C(CC(C)=NOC)C1 (centres unmarked) [1-147],5 (Herbicidal ratio of 90% or more (almost completely withered)),5 (Herbicidal ratio of 90% or more (almost completely withered)),4 (Herbicidal ratio of 70% or higher and lower than 90%),1 (Herbicidal ratio of 5% or higher and lower than 20%),0 (Herbicidal ratio of 5% or lower (almost no effect)),0 (Herbicidal ratio of 5% or lower (almost no effect)),5 (Herbicidal ratio of 90% or more (almost completely withered)),5 (Herbicidal ratio of 90% or more (almost completely withered)),5 (Herbicidal ratio of 90% or more (almost completely withered)),3 (Herbicidal ratio of 40% or higher and lower than 70%),5 (Herbicidal ratio of 90% or more (almost completely withered)),5 (Herbicidal ratio of 90% or more (almost completely withered)),5 (Herbicidal ratio of 90% or more (almost completely withered)),5 (Herbicidal ratio of 90% or more (almost completely withered)),3 (Herbicidal ratio of 40% or higher and lower than 70%),2 (Herbicidal ratio of 20% or higher and lower than 40%),–
